Patent US20230416852A1, “METHODS FOR IDENTIFYING COMPOSITIONS FOR INHIBITING VIRAL INFECTIVITY” (priority 2020, published 2023)
Like-named read-outs stand apart in the source and are kept apart here.

Key:
[1] = molecular target: T1, Vif function of inhibiting A3G CDA (Human immunodeficiency virus type 1 group M subtype B, UniProt P69723); test: biochemical; assay type: biochemical, HIV-1; conditions: for hit for restoring A3G CDA in the presence of Vif: 10 μM compounds, 20% cutoff stringency, i.e. 20% increase in A3G CDA versus controls, positive control set as 1
T1 sequence (P69723 whole entry): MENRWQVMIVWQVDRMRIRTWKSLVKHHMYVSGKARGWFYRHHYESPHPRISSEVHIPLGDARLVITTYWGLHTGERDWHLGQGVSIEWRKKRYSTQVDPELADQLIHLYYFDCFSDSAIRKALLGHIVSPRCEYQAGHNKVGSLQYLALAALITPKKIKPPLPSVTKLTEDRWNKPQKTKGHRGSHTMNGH
Text: The A3G CDA edits the CCC sequence to predominantly to a CCU sequence. To specifically measure the C to U rate, three reverse primers R1, R2, and R3 were designed in the initial study.
Using the qPCR-based screening assay described in Example 1, the NCI Diversity Set VI, NCI Mech Set V, and NIH SMR were screened against Vif function of inhibiting A3G. The NCI Diversity Set VI was derived from almost 140,000 compounds available for distribution in the library of the NCI Developmental Therapeutics Program. […] The qPCR-based CDA assay was used to screen the libraries in 96-well plates with negative controls (no A3G and Vif), positive control (no Vif), and 10 μM compounds. Hits were selected at 20% cutoff stringency (above 0.2), i.e., 20% increase in A3G CDA versus controls. Any compounds that restored A3G activity by 20% or more were selected. The positive control was set as 1.

[2] = molecular target: T1, Vif function of inhibiting A3G CDA; assay type: biochemical, HIV-1; conditions: dose-response retest in qPCR-based CDA assay
[3] = molecular target: T1, Vif function of inhibiting A3G CDA; assay type: biochemical, HIV-1
Text: This assay detects C to U mutation using a highly specific Stu I restriction enzyme digestion method. FIG. 4A is a schematic diagram of the PCR and restriction digestion-based CDA assay. CCC-150 is converted to CCU-150 under the enzymatic activity of A3G. […] In the presence of Vif, Vif will inhibit A3G enzymatic activity, so that reduced or no CCU-150 will be produced. Therefore, less or no Stu I cutting sites will form, and no digestion will occur.
The CDA products were subjected to PCR followed by Stu I digestion. The digestion products were applied to a 10% polyacrylamide gel for separation. SYBR Gold was used to visualize the bands. L-Cefixime refers to Compound I identified above.

HIV IIIB virus = test: MAGI assay of HIV infectivity in TZM-bl cells; assay type: cell-based, HIV-1; conditions: Human immunodeficiency virus 1, IIIB, 48 h, read-out: IC50 antiviral activity
Text: MAGI assay is a classical method for measuring HIV infectivity (Platt E J et at J Virol 72:2855-2864 (1998)). The assay involves HIV infecting a reporter cell line, the TZM-bl cell line (Platt E J et at J Virol 72:2855-2864 (1998); Derdeyn C A et al. J Virol 74:8358-8367 (2000); Wei X et al. Antimicrob Agents Chemother 46:1896-1905 (2002)). The TZM-bl cell line is a Hela cell derivative that expresses CD4, rendering the cells permissive to HIV-1 infection. These cells also contain an integrated LTR-luciferase and β-galactosidase reporter genes, resulting in expression of firefly luciferase and β-galactosidase protein following HIV-1 integration and subsequent expression of the viral transactivator, Tat.
300 ng of p24 content of HIV IIIB virus was used to infect TZM-bl cells. Different doses of Compound II (redoxal) and C5 were used to treat the infected cells. DMSO treatment was used as a control. Two days post-infection, cells were fixed and β-galactosidase was stained to visualize the infected cells.

[4] = system: A3G expression, Gag expression and processing; test: Western blot of A3G stability and Gag in transfected 293T cells; assay type: cell-based; conditions: 5 μM
Protocol: (§1) An A3G expression vector was co-transfected with Vif, or with the empty vector as control. The A3G expression vector was also co-transfected with either a wild-type viral construct HXB2, Vif deficient viral construct HXB2ΔVif, or pcDNA3.1 (as a control) into 293T cells. Immediately following transfection, 5 μM Compound II (redoxal) was used to treat the 293T cells. After 48 hours post-transfection, culture supernatants were subjected to ultracentrifuge to pellet down the virus. Viral lysates were analyzed by Western blot.

HIV in PBMC = conditions: previous report, Pery E et al. Virology 2015; cited from earlier work
HIV IIIB replication = HIV IIIB replication in A3G-expressing CEM-GFP cells; assay type: cell-based, HIV-1; conditions: Human immunodeficiency virus 1, IIIB, FIG. 6A, read-out: IC50 inhibiting HIV IIIB replication
Protocol: (§2) As discussed above, Vif functions as an inhibitor to A3G antiviral function. […] The A3G-dependent antiviral effects of the hits were tested using CD4+T, CEM-GFP, and CEM SS cell lines. […] The Vif specific inhibitor should show high anti-HIV potency in CEM-GFP cells (and not in CEM SS cells). The CEM-GFP cell line expresses GFP upon HIV infection driven by HIV NL4-3 LTR. It can be used to measure HIV replication (Gervaix A, et at Proc Natl Acad Sci USA. 1997; 94 (9):4653-8.)

HIV-1 NL4-3-GFP = HIV-1 NL4-3-GFP infection of CEM SS cells (no A3G); assay type: cell-based; conditions: CEM SS cells compared to CEM-GFP cells, FIG. 6B
Protocol: as §2
In FIG. 6B, HIV-1 NL4-3-GFP was used to infect CEM SS cell line.

[5] = system: Vif induced A3G degradation; test: Western blot of Vif induced A3G degradation in transfected 293T cells; assay type: cell-based; conditions: 5 μM, FIG. 7A
Protocol: as §1, with “quinobene” for “Compound II (redoxal)”

A3G viral encapsidation = test: Western blot of A3G viral encapsidation (viral lysates from 293T cells); assay type: cell-based; conditions: 5 μM, FIG. 7B
Protocol: as §1, with “quinobene” for “Compound II (redoxal)”

[6] = system: A3G related G to A hypermutation in HIV-1 viral cDNA; test: G to A hypermutation analysis of HIV-1 viral cDNA by next-generation sequencing in SupT1 cells; assay type: cell-based; conditions: 1 μM; for average G to A hypermutation rate for each position: average over positions; for average G to A hypermutation rate for each position / G to A hypermutation rate / total G to A hypermutation rate: 6 hours, SupT1, HIV IIIB; for total G to A hypermutation rate: total over all positions
Protocol: The hallmark of A3G antiviral function is to induce G to A hypermutation in HIV cDNA. Therefore, it is very important to evaluate whether quinobene restores A3G's capability to induce G to A hypermutation rates in HIV cDNA. To do this, SupT1 cells were infected with HIV IIIB (350 ng p24)+DMSO or HVI IIIB (350 ng p24)+1 μM quinobene for 6 hours. After infection, DNA was isolated using a DNeasy Blood and Tissue DNA isolation kit (QIAGEN). A 199-bp DNA fragment covering a portion of LTR of HIV-1 was amplified with Taq DNA polymerase using the primers IIIB-F (5′-[…]) and HIV-1-R (5′-[…]). The PCR products were purified by QIAquick PCR Purification Kit (Qiagen) and sent to GENEWIZ, Inc (South Plainfield, NJ) for G to A hypermutation analysis using their Amplicon-EZ service, a next-generation sequencing-based sequencing service, allowed detection of low-frequency variants quantitatively. The G to A hypermutation rate was calculated using CLC Genomic Workbench.

CEM cells = test: Presto Blue Cytotoxicity Assay; conditions: read-out: IC50 cytotoxicity, FIG. 6C
Text: In this assay, live cells show 586 nm fluoresce red. The higher the fluorescence, the more viable the cells are. Therefore, 100% cell death should result in no fluorescence.

SMILES: O=c1c(-c2ccc(O)cc2)coc2cc(O)cc(O)c12 [III, genistein]
- hit for restoring A3G CDA in the presence of Vif [1]: hits
- activity in retest [2]: did not show any activity

SMILES: Oc1ccccc1-c1nc2c3ccccc3c3ccccc3c2[nH]1 [Compound VI]
- hit for restoring A3G CDA in the presence of Vif [1]: hits

SMILES: O=c1c2ccccc2ncn1-c1ccc(Cl)cc1 [Compound V]
- hit for restoring A3G CDA in the presence of Vif [1]: hits

SMILES: Cn1c(SCc2ccccn2)nc2c1c(=O)[nH]c(=O)n2C [Compound VII]
- hit for restoring A3G CDA in the presence of Vif [1]: hits

SMILES: C=CC1=C(C(=O)O)N2C(=O)[C@@H](NC(=O)/C(=N\OCC(=O)O)c3csc(N)n3)[C@H]2SC1 [Compound I, cefixime, reference compound]
- EC50 [1]: > 500 µM
- hit for restoring A3G CDA in the presence of Vif [1]: hits
- restoration of Stu I digestion product ([3]; 10 μM): dramatically restored the digestion product

SMILES: COc1cc(-c2ccc(Nc3ccccc3C(=O)O)c(OC)c2)ccc1Nc1ccccc1C(=O)O [Compound II, redoxal]
- EC50 [1]: < 12.5 µM
- hit for restoring A3G CDA in the presence of Vif [1]: hits
- restoration of Stu I digestion product ([3]; 50 μM): dramatically restored the digestion product
- IC50 (HIV IIIB virus): < 4 µM
- A3G expression ([4]; FIG. 8): enhances A3G expression independent of Vif
- Gag processing patterns ([4]; FIG. 8): may alter Gag processing patterns
- overall Gag expression ([4]; FIG. 8): reduces overall Gag expression
- overall Gag expression ([4]; FIG. 8, listed as redoxal): reduced overall Gag expression
- IC50 (HIV in PBMC): 0.6 to 3 µM

SMILES: O=S(=O)(O)c1cc(N=Nc2cc(S(=O)(=O)O)c3cccnc3c2O)ccc1C=Cc1ccc(N=Nc2cc(S(=O)(=O)O)c3cccnc3c2O)cc1S(=O)(=O)O [Compound IX, quinobene]
- hit for restoring A3G CDA in the presence of Vif [1]: hits and hit
- restoration of Stu I digestion product ([3]; 5 uM): dramatically restored the digestion product
- IC50 (HIV IIIB replication): < 0.75 µM
- antiviral function (HIV-1 NL4-3-GFP): lost its antiviral function
- influence on Vif induced A3G degradation [5]: minimal to no influence
- effects on A3G viral encapsidation (A3G viral encapsidation): minimal to no effects
- positions showing G to A hypermutation rate increases ([6]; 22 out of 26 positions versus untreated): 84.6%
- average G to A hypermutation rate for each position ([6]; listed as Quino): 2.32%
- average G to A hypermutation rate for each position ([6]; listed as quinobene): 2.31%
- G to A hypermutation rate ([6]; position 22): 5.51%
- G to A hypermutation rate ([6]; position 23): 0.27%
- G to A hypermutation rate ([6]; position 35): 1.92%
- G to A hypermutation rate ([6]; position 36): 3.87%
- G to A hypermutation rate ([6]; position 37): 0.43%
- G to A hypermutation rate ([6]; position 47): 1.84%
- G to A hypermutation rate ([6]; position 48): 0.38%
- G to A hypermutation rate ([6]; position 51): 0%
- G to A hypermutation rate ([6]; position 56): 0.53%
- G to A hypermutation rate ([6]; position 61): 6.47%
- G to A hypermutation rate ([6]; position 62): 0%
- G to A hypermutation rate ([6]; position 65): 5.65%
- G to A hypermutation rate ([6]; position 68): 0.38%
- G to A hypermutation rate ([6]; position 71): 2.13%
- G to A hypermutation rate ([6]; position 72): 2.1%
- G to A hypermutation rate ([6]; position 73): 0.28%
- G to A hypermutation rate ([6]; position 78): 0.28%
- G to A hypermutation rate ([6]; position 126): 8.57%
- G to A hypermutation rate ([6]; position 127): 0.33%
- G to A hypermutation rate ([6]; position 136): 1.39%
- G to A hypermutation rate ([6]; position 157): 8.43%
- G to A hypermutation rate ([6]; position 158): 0.19%
- G to A hypermutation rate ([6]; position 168): 0.6%
- G to A hypermutation rate ([6]; position 177): 4.16%
- G to A hypermutation rate ([6]; position 178): 2.37%
- total G to A hypermutation rate ([6]; listed as Quino): 58.08%
- total G to A hypermutation rate ([6]; listed as quinobene): 58%
- IC50 (CEM cells): ~50 µM

SMILES: C[C@@H]1C/C=C/C=C/C=C/C=C/[C@H](O[C@@H]2O[C@H](C)[C@@H](O)[C@H](N)[C@@H]2O)C[C@@H]2O[C@](O)(C[C@@H](O)C[C@H]3O[C@@H]3/C=C/C(=O)O1)C[C@H](O)[C@H]2C(=O)O [IV, natamycin, reference compound]
- hit for restoring A3G CDA in the presence of Vif [1]: hits
- activity in retest [2]: did not show any activity
